Legend:
[1] = system: PCNA and caspase-3 in liver cell; test: Liver cell injury inhibition by seaweed protein: PCNA and caspase-3 expression (western blot); format: cell-based; settings: 20 mM AAP with or without seaweed protein
Protocol: Through the above results, it is confirmed that the cell apoptosis of the liver cell is induced by the increase of the AAP concentration and accordingly, the seaweed protein and AAP are processed together and the liver injury inhibition effect of the seaweed protein by AAP is confirmed.
At first, the degree of the PCNA protein expression capable of securing the recovery of the injured cell is confirmed. For this, a liver tissue is homogenized by lysis buffer (25 mM HEPES, pH 7.5, 5 mM EDTA, 2 mM DTT, 0.1% CHAPS) containing the protease inhibitor and then centrifuged by 14,000×g at 4° C. Thereafter, the protein concentration of the obtained upper layer solution is measured by means of a BCA protein assay kit. A loading process is performed by 50[…] per each lane, an electrophoresis process is performed by SDS-PAGE, and thereafter it is moved toward the PVDF membrane (Millipore, USA). At this time, the rainbow molecular marker (amersham) is used as the standard molecular weight. In the separated protein, the expressin of the caspase-3 protein is confirmed by means of Super Signal West Pico Chemiluminescent Substrate (pierce biotechnology incorporation, USA). […]

[2] = system: caspase-3, PARP, Bcl-2 in liver cell; test: Western blot of cell apoptosis related proteins in liver cell treated by AAP; format: cell-based; settings: liver cell treated by AAP according to the concentration, 24 hours
Protocol: Through the above results, since it is confirmed that the cell apoptosis of the liver cell is induced by AAP, the liver cell is treated by means of AAP according to the concentration and the western blot is executed to observe the expression modes of the protein related to the cell apoptosis. For this, a cell is cultured at a culture dish of 100-mm diameter until it become a confluent monolayer of a confluent state by a medium containing 10% FBS. Thereafter, the medium is replaced with a serum free medium and cultured for 24 hours. After 24 hours, each sample is treated by a serum free medium added according to the concentration and cultured for 24 hours. The culture solution is removed, then washed by the cold PBS solution, and thereafter the cell is recovered through the cell lysate buffer solution containing 1% triton. After the centrifugal process, 4× Laemmli sample buffer (13.3% SDS, 0.4M Tris, 0.013% bromopheno blue, 40% glycerol, pH 6.5) is added to the obtained upper layer solution by 1× of concentration and then an electrophoresis manner is performed in 12.5% SDS-polyacrylamid gel by means of Mighty Small II Apparatus (Hopper Science Instruments, USA). After the electrophoresis manner, the protein separated into the gel is transferred to Immobilon-P membrane (Milipore corporation, the pore size: 0.1[…], USA) by means of Semi-dry Transfer unit, Sigma, USA), reacted at the room temperature for 2 hours in 1×TBS (Tris-buffered saline; 20 mM Tris-base, 137 mM NaCl, 1M HCl) containing 1% BSA, and thereafter left for a night at 4° C. by a primary antibody. Thereafter, the protein is washed by three times at each 10 minutes by TBS-T (Tris-buffered saline, 0.1% Tween 20) and reacted at the room temperature for 1 hour together with the anti-rabbit or anti-mouse IgG-conjugated horseradish peroxide secondary antibody diluted by 1:20,000. […]

[3] = system: GSH (Glutathione) in the liver tissue; test: Glutathione content in the liver tissue; format: in vivo, rat; settings: rats, AAP 700 mg/kg; compared with the control group of 100%
Protocol: Accordingly, the GSH activity in the liver tissue is measured. For this, the liver tissue is homogenized by 5% of sulfosalicylic acid, then frozen by the liquid nitrogen and thereafter a thaw process is executed repeatedly by twice in a cistern of 37° C. Thereafter, the defrosted liver tissue is left for 5 minutes At 4° C. and centrifuged at 4° C., 1,000×g, for 10 minutes, so that the upper solution is obtained. The upper solution and the standard solution within the GSH assay kit are divided into a 96-well plate, respectively, thereafter a working mixture is added to the 96-well plate, and a reaction is progressed at the room temperature for 5 minutes. After 5 minutes, NADPH is inserted into the above plate and mixed through a pipet and then the absorbance is measured by the interval of 5 minutes at 412 nm.

[4] = rats, mean ± S.D. of 10 per group; AAP 700 mg/kg into the abdominal cavity, seaweed protein orally for two weeks
Protocol: Animals for the experiment are male rats (body weight of 100±10 g), as Sparague Dawley of four-week-old, obtained from Hyochang science. 10 rats are divided into three groups, respectively (control group, AAP sole administration group and AAP+seaweed protein administration group), bred in row breeding cages for 7 days as a domestication preparation breeding. At this time, the temperature (22±1° C.), humidity (50±10%) and brightness (12 hours, 08˜18:00) of a breeding room are strictly controlled. After performing the domestication preparation breeding, general feed and water are freely supplied and then a saline solution (control group and AAP sole administration group) and the seaweed protein are orally administrated for two weeks. 700 mg/kg of AAP melted by DMSO is administrated into the abdominal cavity and after 24 hours, heads of rats are cut and then a blood-gathering process is performed. […] And the liver is extracted and washed by the saline solution and thereafter the weight thereof is measured and a part thereof is fixed into the bouin solution (picric acid:formalin:glacial acid=15:5:1). […]
To examine the influence on the liver tissue, liver weight and the change of body weight of the seaweed protein separated and purified at the example 1, the liver tissue of a rat is extracted and its weight is measured.

HepG2 liver cell = test: LDH activity, toxicity of HepG2 liver cell by AAP treatment; format: cell-based; settings: HepG2, AAP 10, 20 and 40 mM
Protocol: To examine the toxicity of the liver cell by the AAP treatment, the activity of LDH is measured. That is, 100[…] per a well with the concentration of 2×10^4 cells/ml is divided into 96-well microplates (palcon, USA) and cultured. After 24 hours, a medium is replaced with an MEM medium including 1% FBS, then cultured again for 24 hours, and thereafter treated by an assay medium of 100[…] and AAP 100[…] (10, 20 and 40 mM). The obtained upper solution of 100[…] is moved into a new 96-well microplate, then 100[…] of the reaction mixture (solution I 250[…]+solution II 11.25[…]) is added to the new 96-well microplate. Thereafter, at the state that the light is intercepted by foil, a reaction is progressed for 30 minutes at 15˜25° C. Thereafter, the absorbance at 490 nm is measured by using an automatic ELIZA reader.

SMILES: CC(=O)Nc1ccc(O)cc1 [AAP, Acetaminophen]
- Cleaved caspase-3 with activation (FIG. 9) [1]: the activated and cleaved caspase-3 is increased
- Caspase-3 cleavage/activity (western blot, FIG. 8) [2]: cleaved and then the activity is increased
- Expression of Bcl-2 (western blot, FIG. 8) [2]: inhibited according to the increase of the AAP concentration
- PARP cleavage (western blot, FIG. 8) [2]: cleaved from 116 kDa to 85 kDa
- GSH content in the liver tissue [3]: 85.39±4.81%
- Final body weight [4]: 299 ± 14.92 g
- Weight of liver [4]: 10.86 ± 0.9 g
- Activity of LDH (degree of liver cell injury) (HepG2 liver cell): increased in proportion to the AAP concentration

From patent publication US8758769B2, “Composition for preventing and treating acetaminophen inducing liver injury comprising the protein extract from Porphyra yezoensis” (Pukyong National University Industry Academic Cooperation …, priority 2006, dated 2014)
